Assay results as given in patent publication US5298490A, “Tetra and penta-peptides useful in regulating the immune system” (Immunobiology Research Institute, Inc., priority 1990, dated 1994).
Each block holds one molecule with its values, some of them ahead of it. Square brackets hold non-standard residues; d marks the D form. Ends that are not written are not given here. Peptide text beside a SMILES is read from it. Aib = CC(C)(N)C(=O)O

Tests used:
[1] = test system: non-obese diabetic (NOD) mice; experiment: Diabetic mice assay; assay type: in vivo; details: 1 mg/kg body weight one time a week from weaning, vs vehicle
Excerpt: A strain of non-obese diabetic (NOD) laboratory mice maintained in Hopital Necker, Paris, France, have been bred in which the females spontaneously develop autoimmune disease of the pancreas. In the normal course of this disease in mice, the pancreatic cells are destroyed, resulting in loss of insulin production and diabetes mellitus. This mouse strain thus is a close model of Type I onset juvenile diabetes, which is normally treated with insulin replacement, but which can be typically slowed by immunosuppressive drugs, e.g., cyclosporin.
In this assay, groups of 12 to 20 NOD female mice are injected with 1 mg/kg body weight of a peptide of the present invention one time a week at weaning. This peptide (acetyl-Arg-Pro-Val-Ala-NH2) called splenoralin was administered the above-described formulation containing glycine and raffinose. A control group of mice were injected similarly with 1 mg of the glycine-raffinose vehicle without the peptide one time a week.

BP8 murine tumor cells = experiment: BP8 tumor inhibition assay; assay type: in vivo, C3H mice; details: 30 ng or 30 μg subcutaneously once per week, vs glycine-raffinose vehicle
Description: An assay is performed using normal healthy C3H laboratory mice. The mice, in groups of 12 to 20, are injected subcutaneously with either 30 ng or 30 μg of a peptide of the present invention once per week. This peptide (acetyl-Arg-Pro-Val-Ala-NH2) called splenoralin was administered in citrate buffer containing 1% glycine and 2% D-raffinose pentahydrate, as described in pending United States patent application Ser. No. 336,236, incorporated herein by reference. A control group of mice were injected similarly with 30 μg of the glycine-raffinose vehicle without the peptide.
Four weeks after the initiation of these weekly injections, each mouse was inoculated intradermally with 5×10^6 BP8 murine tumor cells. BP8 is a conventional benzpyrene induced murine tumor. Once every week thereafter, each mouse is injected with the same amount of either the peptide formulation or the vehicle alone.
FIG. 3 indicates the percent of mice in each group which are negative for the presence of BP8 tumors in the days after the inoculation of tumor cells. FIG. 4 indicates for the same experiment the maximum size of tumors in those mice that did develop tumors.

MOLT-4 cells [2] = experiment: Cyclic GMP assay in MOLT-4 cells; assay type: cell-based, human; details: for activity in cGMP dose-response curves (FIG. 1): evaluated from 1 to 1000 μgs/ml in MOLT-4 cells
Excerpt: This assay measures the ability of a peptide of this invention to bind to the cell membrane receptor of the intact MOLT-4 cell and selectively stimulate production of cyclic GMP, as does human thysplenin and human thymopentin.
The MOLT-4 cell line was obtained from the American Type Culture Collection of Rockville, Md. MOLT-4 cells were freshly seeded and grown for 3 days with harvesting as described in T. Audhya et al, Arch. Biochem Biophys., 234: 167-177 (1984). The cells were washed 3 times in PBS and resuspended in RPMI 1640 at a concentration of 1.0×10^7 cells/ml and were allowed to equilibrate at 37° C. for 30 minutes before the addition of the test tetrapeptides and pentapeptides (25 ul) and control peptides. The incubation was allowed to proceed in a shaking water bath for 4-5 minutes and was then terminated by addition of 1 ml ice-cold TCA (10 percent).
The cells in TCA were homogenized and sonicated to release cyclic nucleotide. The suspension was centrifuged at 3000×g for 20 minutes at 4° C. The resulting precipitate was dissolved in 0.1N NaOH to determine the protein content. TCA was removed from the supernatant fraction by extracting 4 times with 5 ml of water-saturated diethyl ether. After the final extraction, the remaining traces of ether were removed by heating for 10 minutes in a 50° C. water bath. After lyophilization the sample was reconstituted in 50 mM acetate buffer (pH 6.2) for radioimmunoassay of cyclic GMP.
A threshold activity was determined for each peptide tested. This is defined as the lowest concentration of the test peptide which induced an intracellular level of cyclic GMP greater than two standard deviations above the control. The controls had intracellular cyclic GMP values of less than 0.5 picomoles/ml (mean±standard deviation). Test results were considered positive if the level of cyclic GMP was greater than 2 times (2 standard deviations) that determined for the parallel negative control.

[3] = Kisfaludy et al 1983; cited from earlier work
[4] = Enzymatic stability in rat intestinal juice; details: 37° C., HPLC
CEM cells = details: cited from earlier work
MOLT-4 cells [5] = details: cited from earlier work
[6] = Enzymatic stability in human serum; assay type: in vitro ADME; details: 37° C., HPLC
Excerpt: Thymopentin was 50% degraded at about 20 seconds.

[7] = Table II, peptide concentration 1 μg/ml
[8] = Table II, peptide concentration 10 μg/ml
[9] = Table II, peptide concentration 100 μg/ml
[10] = Table I, peptide concentration 1 μg/ml
[11] = Table I, peptide concentration 10 μg/ml
[12] = Table I, peptide concentration 100 μg/ml
[13] = Table I, peptide concentration 1000 μg/ml

Molecule: CC(=O)N[C@@H](CCCNC(=N)N)C(=O)N1CCC[C@H]1C(=O)N[C@H](C(=O)N[C@@H](C)C(N)=O)C(C)C [Acetyl-Arg--Pro--Val--Ala--NH2, Acetyl-Arg-Pro-Val-Ala-NH2] (Ac-RPVA-NH2)
incidence of diabetes / survival in NOD female mice (FIG. 6) [1]: restored the immune function and allowed survival of a greater number of animals than did the placebo
resistance to BP8 tumor growth (percent tumor negative, tumor size; FIG. 3, 4) (BP8 murine tumor cells): enabled the mice to resist the spread and growth of the tumor cells
cGMP Concentration (MOLT-4 cells [2]; [7]): 7.77 picograms/ml
cGMP Concentration (MOLT-4 cells [2]; [8]): 17.39 picograms/ml
cGMP Concentration (MOLT-4 cells [2]; [9]): 24.47 picograms/ml
activity in cGMP dose-response curves (FIG. 2) (MOLT-4 cells [2]; evaluated from 1 to 100 μgs/ml in MOLT-4 cells): active

Molecule: CC(=O)N[C@@H](CCCNC(=N)N)C(=O)NC(C)(C)C(=O)N[C@@H](CCC(=O)O)C(=O)N[C@H](C(N)=O)C(C)C [Acetyl-Arg--Aib--Glu--Val--NH2, Acetyl-Arg-Aib-Glu-Val-NH2] (Ac-R[Aib]EV-NH2)
cGMP Concentration (MOLT-4 cells [2]; [10]): 3.7 picograms/ml
cGMP Concentration (MOLT-4 cells [2]; [11]): 11.0 picograms/ml
cGMP Concentration (MOLT-4 cells [2]; [12]): 17.7 picograms/ml
cGMP Concentration (MOLT-4 cells [2]; [13]): 24.9 picograms/ml

Molecule: Arg-Lys-Glu-Val (RKEV; printed: Arg-Lys-Glu-Val)
activity in in vitro E rosette test [3]: highly active

Molecule: Arg-Lys-Ala-Val (RKAV; printed: Arg-Lys-Ala-Val)
activity in in vitro E rosette test [3]: drastically reduced activity

Molecule: Arg-Ala-Asp-Val (RADV; printed: Arg-Ala-Asp-Val)
activity in in vitro E rosette test [3]: drastically reduced activity

time after which totally digested ([4]; rat intestinal juice and human serum, matrix of this value not stated): 25 s
Molecule: CC(C)[C@H](NC(=O)[C@H](CC(=O)O)NC(=O)[C@H](CCCCN)NC(=O)[C@@H](N)CCCNC(=N)N)C(=O)O [Arg-Lys-Asp-Val, reference compound] (H-RKDV-OH)

Molecule: thymopoietin: immunomodulatory protein isolated from bovine and human thymus (PEFLEDPSVLTKDKLKSELVANNVTLPAGEQRKDVYVQLYLQHLTARNR; Thymopoietin; UniProt P42166 2-50, looked up)
biological changes in CEM cells (CEM cells): induce biological changes
biological changes in MOLT-4 cells (MOLT-4 cells [5]): induce biological changes

Molecule: CC(=O)N[C@@H](CCCNC(=N)N)C(=O)N1CCC[C@H]1C(=O)N[C@@H](CCC(N)=O)C(=O)N[C@H](C(N)=O)C(C)C [Acetyl-Arg--Pro--Gln--Val--NH2] (Ac-RPQV-NH2)
cGMP Concentration (MOLT-4 cells [2]; [10]): 18.75 picograms/ml
cGMP Concentration (MOLT-4 cells [2]; [11]): 29.68 picograms/ml
cGMP Concentration (MOLT-4 cells [2]; [12]): 34.98 picograms/ml
cGMP Concentration (MOLT-4 cells [2]; [13]): 40.23 picograms/ml

time remaining substantially undegraded ([4]; rat intestinal juice): at least 120 seconds
time remaining substantially undegraded [6]: at least 120 seconds
Molecule: CC(=O)N[C@@H](CCCNC(=N)N)C(=O)N1CCC[C@H]1C(=O)N[C@@H](CC(=O)O)C(=O)N[C@H](C(N)=O)C(C)C [Acetyl-Arg--Pro--Asp--Val--NH2, Acetyl-Arg-Pro-Asp-Val-NH2] (Ac-RPDV-NH2)
cGMP Concentration (MOLT-4 cells [2]; [10]): 4.55 picograms/ml
cGMP Concentration (MOLT-4 cells [2]; [11]): 8.99 picograms/ml
cGMP Concentration (MOLT-4 cells [2]; [12]): 19.62 picograms/ml
cGMP Concentration (MOLT-4 cells [2]; [13]): 24.09 picograms/ml

Molecule: Acetyl-Arg-Pro-β-D-Asp-Val-NH2 [Acetyl-Arg--Pro-β-D-Asp--Val--NH2]
cGMP Concentration (MOLT-4 cells [2]; [10]): 6.6 picograms/ml
cGMP Concentration (MOLT-4 cells [2]; [11]): 14.3 picograms/ml
cGMP Concentration (MOLT-4 cells [2]; [12]): 20.5 picograms/ml
cGMP Concentration (MOLT-4 cells [2]; [13]): 25.0 picograms/ml
activity in cGMP dose-response curves (FIG. 1) (MOLT-4 cells [2]): active

Molecule: Acetyl-Arg-Pro-beta-Asp-Gly-NH2 [Acetyl-Arg--Pro-β-Asp--Gly--NH2]
cGMP Concentration (MOLT-4 cells [2]; [10]): 20.56 picograms/ml
cGMP Concentration (MOLT-4 cells [2]; [11]): 31.83 picograms/ml
cGMP Concentration (MOLT-4 cells [2]; [12]): 36.66 picograms/ml
cGMP Concentration (MOLT-4 cells [2]; [13]): 34.95 picograms/ml

Molecule: RKDVY [Arg--Lys--Asp--Val--Tyr, Arg-Lys-Asp-Val-Tyr, reference compound]
biological changes in CEM cells (CEM cells): induce biological changes
cGMP Concentration (MOLT-4 cells [2]; [10]): 6.4 picograms/ml
cGMP Concentration (MOLT-4 cells [2]; [11]): 18.3 picograms/ml
cGMP Concentration (MOLT-4 cells [2]; [12]): 20.8 picograms/ml
cGMP Concentration (MOLT-4 cells [2]; [13]): 21.9 picograms/ml
cGMP Concentration (MOLT-4 cells [2]; [7]): 3.55 picograms/ml
cGMP Concentration (MOLT-4 cells [2]; [8]): 13.56 picograms/ml
cGMP Concentration (MOLT-4 cells [2]; [9]): 18.70 picograms/ml
cGMP Concentration (MOLT-4 cells [2]; Table II, peptide concentration 1000 μg/ml): 24.85 picograms/ml
biological changes in MOLT-4 cells (MOLT-4 cells [5]): induce biological changes

Molecule: CC(=O)N[C@@H](CCCNC(=N)N)C(=O)N1CCC[C@H]1C(=O)N[C@@H](C)C(=O)N[C@H](C(N)=O)C(C)C [Acetyl-Arg--Pro--Ala--Val--NH2, Acetyl-Arg-Pro-Ala-Val-NH2] (Ac-RPAV-NH2)
cGMP Concentration (MOLT-4 cells [2]; [10]): 7.1 picograms/ml
cGMP Concentration (MOLT-4 cells [2]; [11]): 14.6 picograms/ml
cGMP Concentration (MOLT-4 cells [2]; [12]): 19.1 picograms/ml
cGMP Concentration (MOLT-4 cells [2]; [13]): 24.5 picograms/ml
activity in cGMP dose-response curves (FIG. 1) (MOLT-4 cells [2]): active

Molecule: CC(=O)N[C@@H](CCCNC(=N)N)C(=O)N1CCC[C@H]1C(=O)N[C@@H](CCC(=O)O)C(=O)N[C@H](C(N)=O)C(C)C [Acetyl-Arg--Pro--Glu--Val--NH2, Acetyl-Arg-Pro-Glu-Val-NH2] (Ac-RPEV-NH2)
cGMP Concentration (MOLT-4 cells [2]; [10]): 4.7 picograms/ml
cGMP Concentration (MOLT-4 cells [2]; [11]): 9.41 picograms/ml
cGMP Concentration (MOLT-4 cells [2]; [12]): 16.76 picograms/ml
cGMP Concentration (MOLT-4 cells [2]; [13]): 25.00 picograms/ml

Molecule: CC(=O)N[C@@H](CCCNC(=N)N)C(=O)N1CCC[C@H]1C(=O)N[C@@H](CC(=O)O)C(=O)N1CCC[C@H]1C(N)=O [Acetyl-Arg-Pro-Asp-Pro-NH2, reference compound] (Ac-RPDP-NH2)
activity in cGMP dose-response curves (FIG. 1) (MOLT-4 cells [2]): inactive

Molecule: CC(=O)N[C@@H](CCCNC(=N)N)C(=O)NC(C)(C)C(=O)N[C@@H](C)C(=O)N[C@H](C(N)=O)C(C)C [Acetyl-Arg--Aib--Ala--Val--NH2, Acetyl-Arg-Aib-Ala-Val-NH2] (Ac-R[Aib]AV-NH2)
cGMP Concentration (MOLT-4 cells [2]; [10]): 18.78 picograms/ml
cGMP Concentration (MOLT-4 cells [2]; [11]): 30.45 picograms/ml
cGMP Concentration (MOLT-4 cells [2]; [12]): 36.17 picograms/ml
cGMP Concentration (MOLT-4 cells [2]; [13]): 39.48 picograms/ml
